Tested on: cancer cells
Assay: Tumor cell necrosis of cancer cells versus normal cells (general statement)
Type: cell-based
Settings: cancer cells vs normal cells; statement in the description, no data shown
Protocol: PNC-27 or PNC-28 is incubated with 6×10^6 cancer cells, for example, Mia-PaCa-2 cells, for 5 days at concentrations ranging from 0.001-750 μM. At different timepoints following treatment the cells are assessed for signs of necrosis, for example, membrane blebbing and disruption and formation of cell clumps coalescing into aggregates of cellular debris. Percent cell death is determined by measuring trypan blue dye uptake. Cancer cells are also treated with the negative control peptide PNC-29 and, separately, a peptide having only the p53 derived portion of PNC-27 or PNC-28 that cannot traverse the cell membrane due to the lack of the MRP peptide, administered at the same concentration as the test peptide. The effect of these control peptides on cellular growth, morphology and viability is determined.
As an additional control, PNC-27 or PNC-28 is combined with untransformed BMRPA1 acinar cells and with the untransformed breast epithelial cell line, MCF-10-2A at a concentration ranging from 0.001-750 μM to determine if the peptide is lethal to normal cell growth.

Sequence	tumor cell necrosis
ETFSDLWKLLKKWKMRRNQFWVKVQRG [PNC-28, p53 aa17-26-MRP]	induce tumor cell necrosis of cancer cells, but not normal cells
PPLSQETFSDLWKLLKKWKMRRNQFWVKVQRG [PNC-27]	induce tumor cell necrosis of cancer cells, but not normal cells
